Results taken from publication PMC12844208, “Screening for Peptides to Bind and Functionally Inhibit SARS-CoV-2 Fusion Peptide Using Mirrored Combinatorial Phage Display and Human Proteomic Phage Display” (Molecules, 2026).

Test system: spike-FP12 peptide
Type: binding, SARS-CoV-2

Row | Sequence | % Count [%] | Count (read counts of phage display binding to FP)
1 | DTLLPTQQAEVLHPVV | 2.70 | 1392
2 | TLPFGDVEYVDLDAFL | 0.29 | 148
3 | GPDRNFRLSEHRQALA | 6.59 | 3393
4 | HPNIKRVTPQRKVFRS | 0.01 | 3
5 | SFQYADIYEQMMLTGL | 0.01 | 5
6 | GSSYAEMEVMKMIMTL | 0.06 | 31
7 | QLEHVKLFMQDLSAML | 9.07 | 4673
8 | NFRLSEHRQALAAAKH | 0.00 | 2
